Data on ten molecules can be found in US8148391B2 (Cephalon, Inc., priority 2006, dated 2012).

The target in assay [1] is T1, baculovirus-expressed ALK (Homo sapiens, UniProt Q9UM73).
T1 construct: host or cells: baculovirus expression system
Nature of the assay: ALK Kinase Assay (ELISA-type, time-resolved fluorescence). The class given is biochemical. To be noted: ALK kinase inhibition, 1 μM ATP (Km level); read-out: ALK Activity. In outline:
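Wells were coated with phospholipase C-γ at 10 μg/mL in Tris-buffered saline. Adding 30 ng/ml enzyme started the reaction, which ran at 37° C for 15 minutes before Eu-N1 PT66 antibody detection. Percent inhibition versus log10 concentration gave IC50 by variable-slope fit.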
Background: An ELISA detects its analyte on a solid surface through an enzyme-linked reagent.

The target in assay [2] is T2, c-Met (cytoplasmic domain) (Homo sapiens, UniProt P08581).
T2 construct: 10 ng/mL c-Met (cytoplasmic domain, Invitrogen Corporation #PV3143); purchased Invitrogen Corporation PV3143
T2 sequence (P08581 956-1390 limits assumed): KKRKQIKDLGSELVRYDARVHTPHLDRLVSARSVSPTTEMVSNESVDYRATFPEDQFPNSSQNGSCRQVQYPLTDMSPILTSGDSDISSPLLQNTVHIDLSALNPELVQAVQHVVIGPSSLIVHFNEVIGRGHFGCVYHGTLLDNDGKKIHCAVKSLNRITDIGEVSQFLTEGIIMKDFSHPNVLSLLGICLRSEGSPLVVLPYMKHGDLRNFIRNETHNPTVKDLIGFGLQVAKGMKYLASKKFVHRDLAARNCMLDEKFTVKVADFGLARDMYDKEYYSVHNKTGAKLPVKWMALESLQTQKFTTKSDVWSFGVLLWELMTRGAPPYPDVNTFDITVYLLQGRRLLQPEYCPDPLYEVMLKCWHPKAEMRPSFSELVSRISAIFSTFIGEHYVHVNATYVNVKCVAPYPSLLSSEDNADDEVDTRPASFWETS
Nature of the assay: c-Met Kinase Assay (same methods as for ALK, with modifications). The class given is biochemical. The settings on record: c-Met kinase inhibition, 1 μM ATP (Km level); read-out: cMet Activity. In outline: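 IC50 values were fitted by variable-slope sigmoidal regression of percent inhibition against log compound concentration. Phosphorylation was read with Eu-N1 PT66 antibody after a 15 min, 37 °C reaction. The reaction was initiated with 10 ng/mL c-Met cytoplasmic domain on wells coated with 10 μg/mL PLC-γ in TBS.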

T1 sequence (Q9UM73 19-1620): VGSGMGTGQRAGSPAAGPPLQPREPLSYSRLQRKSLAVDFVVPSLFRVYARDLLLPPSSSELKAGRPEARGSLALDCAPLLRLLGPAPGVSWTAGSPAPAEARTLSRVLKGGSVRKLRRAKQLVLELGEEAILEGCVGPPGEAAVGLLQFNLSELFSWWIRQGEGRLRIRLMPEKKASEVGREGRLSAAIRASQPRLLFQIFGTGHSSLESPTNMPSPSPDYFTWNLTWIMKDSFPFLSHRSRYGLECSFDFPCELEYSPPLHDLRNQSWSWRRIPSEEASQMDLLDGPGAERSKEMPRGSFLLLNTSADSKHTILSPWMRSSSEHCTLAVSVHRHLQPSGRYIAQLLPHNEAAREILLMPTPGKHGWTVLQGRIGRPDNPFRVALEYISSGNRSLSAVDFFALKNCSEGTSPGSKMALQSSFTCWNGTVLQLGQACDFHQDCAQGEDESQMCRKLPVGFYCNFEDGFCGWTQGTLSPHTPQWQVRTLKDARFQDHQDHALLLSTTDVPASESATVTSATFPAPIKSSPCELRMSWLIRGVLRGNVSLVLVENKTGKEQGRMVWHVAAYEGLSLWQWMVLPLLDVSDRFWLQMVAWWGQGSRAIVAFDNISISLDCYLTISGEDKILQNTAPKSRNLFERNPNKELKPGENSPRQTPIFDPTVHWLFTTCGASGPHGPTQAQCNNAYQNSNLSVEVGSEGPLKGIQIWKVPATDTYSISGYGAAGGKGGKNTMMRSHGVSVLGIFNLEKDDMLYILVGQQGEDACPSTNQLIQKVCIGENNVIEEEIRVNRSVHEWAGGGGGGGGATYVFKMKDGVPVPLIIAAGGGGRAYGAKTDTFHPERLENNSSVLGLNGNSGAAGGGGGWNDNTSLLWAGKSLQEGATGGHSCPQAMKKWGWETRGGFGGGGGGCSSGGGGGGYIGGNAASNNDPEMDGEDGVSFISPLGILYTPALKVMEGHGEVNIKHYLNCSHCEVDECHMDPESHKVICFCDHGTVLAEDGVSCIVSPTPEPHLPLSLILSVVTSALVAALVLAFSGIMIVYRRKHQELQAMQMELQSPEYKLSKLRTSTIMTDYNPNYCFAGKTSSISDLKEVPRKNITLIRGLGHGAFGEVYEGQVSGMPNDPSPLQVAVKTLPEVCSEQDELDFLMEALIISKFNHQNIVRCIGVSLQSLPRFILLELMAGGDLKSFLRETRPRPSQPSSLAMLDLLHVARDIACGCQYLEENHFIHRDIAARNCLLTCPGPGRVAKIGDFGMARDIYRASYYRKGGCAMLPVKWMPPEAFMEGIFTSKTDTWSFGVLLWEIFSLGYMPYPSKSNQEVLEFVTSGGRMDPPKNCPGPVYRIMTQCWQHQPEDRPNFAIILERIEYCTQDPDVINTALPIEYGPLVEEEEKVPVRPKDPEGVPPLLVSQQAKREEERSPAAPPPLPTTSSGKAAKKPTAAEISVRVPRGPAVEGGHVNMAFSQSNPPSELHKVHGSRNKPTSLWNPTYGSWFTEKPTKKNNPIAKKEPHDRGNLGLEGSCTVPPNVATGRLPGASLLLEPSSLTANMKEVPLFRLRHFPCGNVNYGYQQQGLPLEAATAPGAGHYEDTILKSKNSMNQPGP

Regarding `CNC(=O)c1cccc(Cl)c1Nc1nc(Nc2ccc3c(c2)C2CCC(C3)N2CCOC)ncc1Cl` (centres unmarked) [Example 91, 3-Chloro-2-{5-chloro-2-[12-(2-methoxy-ethyl)-12-aza-tricyclo[7.2.1.0*2,7*]dodeca-2(7),3,5-trien-4-ylamino]-pyrimidin-4-ylamino}-N-methyl-benzamide], the values for the IC50 in assay [1] and in assay [2] were 100 to 1000 nM and under 100 nM, respectively.
For `COc1c(Nc2ncc(Cl)c(N[C@@H]3CCCC[C@H]3NS(C)(=O)=O)n2)ccc2c1C1CCC(C2)N1` (stereo partly drawn) [Example 92, N-{(1R,2R)-2-[5-Chloro-2-(3-methoxy-12-aza-tricyclo[7.2.1.0*2,7*]dodeca-2(7),3,5-trien-4-ylamino)-pyrimidin-4-ylamino]-cyclohexyl}-methanesulfonamide] the same measures were 1000 to 10000 nM and over 10000 nM.
In the case of `CCN1C2CCC1c1c(ccc(Nc3ncc(Cl)c(N[C@@H]4CCCC[C@H]4NS(C)(=O)=O)n3)c1OC)C2` (stereo partly drawn) [Example 93, N-{(1R,2R)-2-[5-Chloro-2-(12-ethyl-3-methoxy-12-aza-tricyclo[7.2.1.0*2,7*]dodeca-2(7),3,5-trien-4-ylamino)-pyrimidin-4-ylamino]-cyclohexyl}-methanesulfonamide], the IC50 in assay [1] and in assay [2] was over 10000 nM throughout.
Consider `CNC(=O)c1ccccc1Nc1nc(Nc2ccc3c(c2)CCCCN3C)ncc1Cl` [Example 103, 2-[5-Chloro-2-(1-methyl-2,3,4,5-tetrahydro-1H-benzo[b]azepin-7-ylamino)-pyrimidin-4-ylamino]-N-methyl-benzamide], for which the IC50 in assay [1] and in assay [2] was under 100 nM throughout.
As for `CN1CCCCc2cc(Nc3ncc(Cl)c(N[C@@H]4CCCC[C@H]4NS(C)(=O)=O)n3)ccc21` [Example 104, N-{(1R,2R)-2-[5-Chloro-2-(1-methyl-2,3,4,5-tetrahydro-1H-benzo[b]azepin-7-ylamino)-pyrimidin-4-ylamino]-cyclohexyl}-methanesulfonamide], the results for the IC50 in assay [1] and in assay [2] were under 100 nM and 100 to 1000 nM, respectively.
The like results for `COc1cc(N2CCOCC2)ccc1Nc1nc(Nc2ccc3c(c2)CCCCN3C)ncc1Cl` [Example 105, 5-Chloro-N*4*-(2-methoxy-4-morpholin-4-yl-phenyl)-N*2*-(1-methyl-2,3,4,5-tetrahydro-1H-benzo[b]azepin-7-yl)-pyrimidine-2,4-diamine] were, in that order, under 100 nM and over 10000 nM.
For `CN1CCCCc2cc(Nc3ncc(Cl)c(Nc4ccccc4NS(C)(=O)=O)n3)ccc21` [Example 106, N-{2-[5-Chloro-2-(1-methyl-2,3,4,5-tetrahydro-1H-benzo[b]azepin-7-ylamino)-pyrimidin-4-ylamino]-phenyl}-methanesulfonamide] the same measures were under 100 nM and 100 to 1000 nM.
Consider `CNC(=O)c1ccccc1Nc1nc(Nc2cc3c(cc2OC)C(=O)N(C)CCC3)ncc1Cl` [Example 107, 2-[5-Chloro-2-(8-methoxy-2-methyl-1-oxo-2,3,4,5-tetrahydro-1H-benzo[c]azepin-7-ylamino)-pyrimidin-4-ylamino]-N-methyl-benzamide], for which the IC50 in assay [1] was under 100 nM; in assay [2], 100 to 1000 nM.
For `CNC(=O)c1ccccc1Nc1nc(Nc2ccc3c(c2)N(C)C(=O)CCC3)ncc1Cl` [Example 108, 2-[5-Chloro-2-(1-methyl-2-oxo-2,3,4,5-tetrahydro-1H-benzo[b]azepin-8-ylamino)-pyrimidin-4-ylamino]-N-methyl-benzamide] the same measures were under 100 nM and under 100 nM.
For `CN1C(=O)CCCc2ccc(Nc3ncc(Cl)c(N[C@@H]4CCCC[C@H]4NS(C)(=O)=O)n3)cc21` [Example 109, N-{(1R,2R)-2-[5-Chloro-2-(1-methyl-2-oxo-2,3,4,5-tetrahydro-1H-benzo[b]azepin-8-ylamino)-pyrimidin-4-ylamino]-cyclohexyl}-methanesulfonamide] the same measures were under 100 nM and 1000 to 10000 nM.
